Assay results taken from ChEMBL document CHEMBL1201862, “PubChem BioAssay data set” (2004).
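All cell lines were grown in 96-well plates and treated with compound for 48 hours. GI50: concentration for 50% inhibition of growth.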 Active and inactive are the calls of the source. Rule as the data show it: active = GI50 up to about 1.1 µM and inactive = higher.

Key:
Test in all cases: DTP human tumour cell line panel, 48 h
COLO 205 = system: COLO 205
EKVX = system: EKVX
HCC 2998 = system: HCC 2998
HOP-62 = system: HOP-62
HOP-92 = system: HOP-92
MCF7 = system: MCF7
MDA-MB-231 = system: MDA-MB-231
Malme-3M = system: Malme-3M
NCI-H23 = system: NCI-H23
OVCAR-4 = system: OVCAR-4
OVCAR-8 = system: OVCAR-8
RPMI-8226 = system: RPMI-8226
SF-268 = system: SF-268
SK-MEL-5 = system: SK-MEL-5
SN12C = system: SN12C
SR = system: SR
U-251 = system: U-251
UO-31 = system: UO-31
CAKI-1 = system: CAKI-1
SK-MEL-2 = system: SK-MEL-2

Structure (SMILES) | GI50 (COLO 205) | GI50 (EKVX) | GI50 (HCC 2998) | GI50 (HOP-62) | GI50 (HOP-92) | GI50 (MCF7) | GI50 (MDA-MB-231) | GI50 (Malme-3M) | GI50 (NCI-H23) | GI50 (OVCAR-4) | GI50 (OVCAR-8) | GI50 (RPMI-8226) | GI50 (SF-268) | GI50 (SK-MEL-5) | GI50 (SN12C) | GI50 (SR) | GI50 (U-251) | GI50 (UO-31) | GI50 (CAKI-1) | GI50 (SK-MEL-2)
Nn1nnc2ccccc21 | > 100 µM (inactive) | > 100 µM (inactive) | > 100 µM (inactive) | > 100 µM (inactive) | > 100 µM (inactive) | > 100 µM (inactive) | > 100 µM (inactive) | > 100 µM (inactive) | > 100 µM (inactive) | > 100 µM (inactive) | > 100 µM (inactive) | > 100 µM (inactive) | > 100 µM (inactive) | > 100 µM (inactive) | > 100 µM (inactive) | > 100 µM (inactive) | > 100 µM (inactive) | > 100 µM (inactive) | – | –
COC(=O)Nc1nc(=O)c2ccccc2[nH]1 | > 100 µM (inactive) | > 100 µM (inactive) | > 100 µM (inactive) | > 100 µM (inactive) | – | > 100 µM (inactive) | > 100 µM (inactive) | 53.3 µM (inactive) | > 100 µM (inactive) | > 100 µM (inactive) | > 100 µM (inactive) | – | > 100 µM (inactive) | 55 µM (inactive) | > 100 µM (inactive) | > 100 µM (inactive) | 43.8 µM (inactive) | 32.1 µM (inactive) | > 100 µM (inactive) | > 100 µM (inactive)
COc1ccc2nc(/C(N)=C\C#N)ccc2c1 | 56 µM (inactive) | 0.15 µM (active) | – | > 100 µM (inactive) | 91.8 µM (inactive) | > 100 µM (inactive) | > 100 µM (inactive) | > 100 µM (inactive) | 90.2 µM (inactive) | 86.7 µM (inactive) | 36.8 µM (inactive) | 37.5 µM (inactive) | 33.7 µM (inactive) | 11.9 µM (inactive) | 57.5 µM (inactive) | 22.3 µM (inactive) | 60.5 µM (inactive) | 32.8 µM (inactive) | > 100 µM (inactive) | 49.5 µM (inactive)
OCC1OC(n2cnc3c(Cl)nc(Nc4ccccc4)nc32)CC1O (configuration not stated) | > 100 µM (inactive) | 2.94 µM (inactive) | 17.8 µM (inactive) | > 100 µM (inactive) | 2.74 µM (inactive) | > 100 µM (inactive) | 31.2 µM (inactive) | 18.7 µM (inactive) | 29.3 µM (inactive) | 25.4 µM (inactive) | > 100 µM (inactive) | > 100 µM (inactive) | 65.6 µM (inactive) | > 100 µM (inactive) | > 100 µM (inactive) | – | > 100 µM (inactive) | 18 µM (inactive) | 1.77 µM (inactive) | 45.7 µM (inactive)
Cn1c(=O)sc2cc(C(=S)N3CCC(Cc4ccccc4)CC3)ccc21 | 83.2 µM (inactive) | 9.42 µM (inactive) | – | > 100 µM (inactive) | – | 41.7 µM (inactive) | > 100 µM (inactive) | – | 44.7 µM (inactive) | – | 20.1 µM (inactive) | 9.89 µM (inactive) | 28.7 µM (inactive) | 26.9 µM (inactive) | > 100 µM (inactive) | 17.7 µM (inactive) | 16.2 µM (inactive) | – | 61.5 µM (inactive) | > 100 µM (inactive)
CC1=NOC2(C1)/C(=N/O)CCC/C2=N\O (configuration not stated) | > 100 µM (inactive) | > 100 µM (inactive) | > 100 µM (inactive) | > 100 µM (inactive) | – | > 100 µM (inactive) | > 100 µM (inactive) | > 100 µM (inactive) | > 100 µM (inactive) | > 100 µM (inactive) | > 100 µM (inactive) | > 100 µM (inactive) | > 100 µM (inactive) | > 100 µM (inactive) | > 100 µM (inactive) | > 100 µM (inactive) | > 100 µM (inactive) | > 100 µM (inactive) | > 100 µM (inactive) | > 100 µM (inactive)
Cc1cn(C2CC(Br)C(COC(c3ccccc3)(c3ccccc3)c3ccccc3)O2)c(=O)[nH]c1=O (configuration not stated) | 14 µM (inactive) | 14.5 µM (inactive) | – | 16.9 µM (inactive) | 11.2 µM (inactive) | 10 µM (inactive) | 17.7 µM (inactive) | 17.6 µM (inactive) | 7.4 µM (inactive) | 13 µM (inactive) | 10.9 µM (inactive) | 4.7 µM (inactive) | 13.8 µM (inactive) | 12.7 µM (inactive) | 14.7 µM (inactive) | 5 µM (inactive) | 12.3 µM (inactive) | 6.71 µM (inactive) | 15.1 µM (inactive) | 14.6 µM (inactive)
CN(C)CCCN1c2ccccc2CCc2ccc([N+](=O)[O-])cc21 | 13.6 µM (inactive) | 69.3 µM (inactive) | 13.9 µM (inactive) | 25.7 µM (inactive) | – | 17.7 µM (inactive) | 39.2 µM (inactive) | 19.5 µM (inactive) | 27.2 µM (inactive) | 35.5 µM (inactive) | 29.6 µM (inactive) | 34.5 µM (inactive) | 29.6 µM (inactive) | 15.8 µM (inactive) | 22.8 µM (inactive) | 25.9 µM (inactive) | 29.3 µM (inactive) | 16 µM (inactive) | 40.6 µM (inactive) | 20.3 µM (inactive)
CN(C)CCNC(=O)Cn1ccc(=O)c2c([N+](=O)[O-])cccc21 | > 100 µM (inactive) | > 100 µM (inactive) | > 100 µM (inactive) | > 100 µM (inactive) | – | > 100 µM (inactive) | > 100 µM (inactive) | > 100 µM (inactive) | > 100 µM (inactive) | > 100 µM (inactive) | > 100 µM (inactive) | > 100 µM (inactive) | > 100 µM (inactive) | > 100 µM (inactive) | > 100 µM (inactive) | > 100 µM (inactive) | > 100 µM (inactive) | > 100 µM (inactive) | > 100 µM (inactive) | > 100 µM (inactive)
CN(CCN(C)Cc1ccc(Cl)c(Cl)c1)CCN1CCCC1 | 19.2 µM (inactive) | > 64 µM (inactive) | 14.5 µM (inactive) | 22.1 µM (inactive) | 4.44 µM (inactive) | 28.4 µM (inactive) | 18.8 µM (inactive) | 19.7 µM (inactive) | 42.1 µM (inactive) | 52.5 µM (inactive) | 20.1 µM (inactive) | 7.71 µM (inactive) | 10.4 µM (inactive) | 14.9 µM (inactive) | > 48 µM (inactive) | – | 21.3 µM (inactive) | 11.6 µM (inactive) | 36 µM (inactive) | 24.2 µM (inactive)
Cc1c(-c2nc(N)c(C#N)c(N)c2C#N)c(=O)oc2ccccc12 | 60.7 µM (inactive) | 68.1 µM (inactive) | > 100 µM (inactive) | 67.3 µM (inactive) | > 100 µM (inactive) | 73.6 µM (inactive) | > 100 µM (inactive) | > 100 µM (inactive) | 87.9 µM (inactive) | > 100 µM (inactive) | > 100 µM (inactive) | 23.6 µM (inactive) | > 100 µM (inactive) | 87.5 µM (inactive) | > 100 µM (inactive) | – | 55.3 µM (inactive) | > 100 µM (inactive) | > 100 µM (inactive) | > 100 µM (inactive)
O=[N+]([O-])c1ccc2nnnn2c1 | 23.9 µM (inactive) | > 100 µM (inactive) | – | 31 µM (inactive) | 96.6 µM (inactive) | 24 µM (inactive) | 10.8 µM (inactive) | 20.9 µM (inactive) | 22.6 µM (inactive) | 78.7 µM (inactive) | 44.1 µM (inactive) | – | 70.6 µM (inactive) | 18 µM (inactive) | 19.8 µM (inactive) | 4.76 µM (inactive) | 23.2 µM (inactive) | 7.89 µM (inactive) | 17.6 µM (inactive) | 23.3 µM (inactive)
Cc1n[nH]c(=O)c2c3c([nH]c12)-c1ccccc1C3 | > 100 µM (inactive) | > 100 µM (inactive) | – | > 100 µM (inactive) | > 100 µM (inactive) | 75.3 µM (inactive) | 66.4 µM (inactive) | > 100 µM (inactive) | > 100 µM (inactive) | > 100 µM (inactive) | > 100 µM (inactive) | > 100 µM (inactive) | > 100 µM (inactive) | > 100 µM (inactive) | > 100 µM (inactive) | 82.8 µM (inactive) | > 100 µM (inactive) | > 100 µM (inactive) | > 100 µM (inactive) | > 100 µM (inactive)
O=c1c(Cc2ccccc2)c(-c2ccccc2)[nH]n1C1=NCCN1 | 35.2 µM (inactive) | 39.1 µM (inactive) | – | 56 µM (inactive) | 44.7 µM (inactive) | 40.1 µM (inactive) | > 100 µM (inactive) | 25.4 µM (inactive) | 62.5 µM (inactive) | 54.2 µM (inactive) | 40 µM (inactive) | 47 µM (inactive) | 28.4 µM (inactive) | 32.4 µM (inactive) | – | 22.8 µM (inactive) | 33.6 µM (inactive) | 42.6 µM (inactive) | 72.1 µM (inactive) | 28.4 µM (inactive)
Oc1ccc(CNCc2ccccc2)c2cccnc12 | 2.65 µM (inactive) | 0.495 µM (active) | – | 0.0853 µM (active) | 0.177 µM (active) | 0.11 µM (active) | 0.36 µM (active) | 0.321 µM (active) | 0.156 µM (active) | 0.421 µM (active) | 0.107 µM (active) | 0.156 µM (active) | 0.24 µM (active) | 0.191 µM (active) | 0.0601 µM (active) | 0.182 µM (active) | 0.0384 µM (active) | 0.316 µM (active) | 0.48 µM (active) | 0.264 µM (active)
